The text below walks through data of patent publication US20230143612A1 (Arbutus Biopharma Corporation, priority 2020, published 2023).

Sequence of PD-L1 His protein / PD-1 Fc protein (Q9NZQ7 19-238 limits assumed): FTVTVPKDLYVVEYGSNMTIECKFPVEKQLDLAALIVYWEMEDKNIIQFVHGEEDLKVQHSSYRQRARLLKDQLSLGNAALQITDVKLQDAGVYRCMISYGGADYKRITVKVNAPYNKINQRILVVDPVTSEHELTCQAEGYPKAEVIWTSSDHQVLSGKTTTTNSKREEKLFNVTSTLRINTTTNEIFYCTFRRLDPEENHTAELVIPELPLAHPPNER

This assay concerns the target PD-L1 His protein / PD-1 Fc protein (Homo sapiens, UniProt Q9NZQ7). The assay is described as follows: HTRF Assay (PD-1/PD-L1 interaction). Format: binding. To be noted: PD-L1 His 6 nM, PD-1 Fc 6 nM. A digest of the protocol: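 Compounds tested from 20 μM down to 0.001 μM (3-fold) against 6 nM PD-L1 His and 6 nM PD-1 Fc, 15 min room temperature incubation. Detection after 1 h at room temperature with Tb cryptate anti-6HIS and XL665 anti-human IgG reagents (mixture at 0.35 nM and 6.7 nM), HTRF signal.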
In general terms: In TR-FRET formats the signal depends on donor and acceptor labels being close together.
For orientation: IC50 means the concentration at which inhibition is half-maximal. Take `COc1nc(-c2cccc(-c3cccc(-c4cc5c(=O)n(C)c(CN[C@H]6CC[C@H](O)CC6)nn5c4)c3Cl)c2Cl)ccc1CNC[C@@H]1CCC(=O)N1` [Example 486, 6-[2-Chloro-3-[2-chloro-3-[6-methoxy-5-[[[(2S)-5-oxopyrrolidin-2-yl]methylamino]methyl]-2-pyridyl]phenyl]phenyl]-2-[[(4-hydroxycyclohexyl)amino]methyl]-3-methyl-pyrrolo[2,1-f][1,2,4]triazin-4-one]: the IC50 was 0.4 nM.
For `COc1nc(-c2cccc(-c3cccc(-c4cc5c(=O)n(C)c(CNC[C@H](C)O)nn5c4)c3Cl)c2Cl)ccc1CNC[C@@H]1CCC(=O)N1` [Example 350, 6-(2,2′-Dichloro-3′-(6-methoxy-5-(((((S)-5-oxopyrrolidin-2-yl)methyl)amino)methyl)pyridin-2-yl)-[1,1′-biphenyl]-3-yl)-2-((((S)-2-hydroxypropyl)amino)methyl)-3-methylpyrrolo[2,1-f][1,2,4]triazin-4(3H)-one] the value was 0.1 nM; for `COc1nc(-c2cccc(-c3cccc(-c4ccn5c(=O)c(CNC[C@@H]6CCC(=O)N6)cnc5c4)c3Cl)c2Cl)ccc1CN[C@H]1CCOC[C@@H]1O` [Example 174, 8-(2,2′-Dichloro-3′-(5-((((3R,4S)-3-hydroxytetrahydro-2H-pyran-4-yl)amino)methyl)-6-methoxypyridin-2-yl)-[1,1′-biphenyl]-3-yl)-3-(((((S)-5-oxopyrrolidin-2-yl)methyl)amino)methyl)-4H-pyrido[1,2-a]pyrimidin-4-one], 0.8 nM.
To `COc1nc(-c2cccc(-c3cccc(-c4ccn5c(=O)c(C)c(CNCCO)nc5c4)c3Cl)c2Cl)ccc1CNC[C@@H]1CCC(=O)N1` [Example 371, (S)-8-(2,2′-Dichloro-3′-(6-methoxy-5-((((5-oxopyrrolidin-2-yl)methyl)amino)methyl)pyridin-2-yl)-[1,1′-biphenyl]-3-yl)-2-(((2-hydroxyethyl)amino)methyl)-3-methyl-4H-pyrido[1,2-a]pyrimidin-4-one] belongs 33 nM; to `COc1nc(-c2cccc(-c3cccc(-c4ccn5c(=O)c(CN6CCC6C(N)=O)cnc5c4)c3Cl)c2Cl)ccc1CNC[C@@H]1CCC(=O)N1` (mixture of isomers) [Example 259, 1-[[8-[2-Chloro-3-[2-chloro-3-[6-methoxy-5-[[[(2S)-5-oxopyrrolidin-2-yl]methylamino]methyl]-2-pyridyl]phenyl]phenyl]-4-oxo-pyrido[1,2-a]pyrimidin-3-yl]methyl]azetidine-2-carboxamide], 2.3 nM; to `O=C1CC[C@@H](CNCc2ccc(-c3cccc(-c4cccc(-c5ccn6c(=O)c(CNC[C@@H]7CCC(=O)N7)cnc6c5)c4Cl)c3Cl)cc2OC(F)F)N1` [Example 110, 8-(2,2′-Dichloro-3″-(difluoromethoxy)-4″-(((((S)-5-oxopyrrolidin-2-yl)methyl)amino)methyl)-[1,1′:3′,1″-terphenyl]-3-yl)-3-(((((S)-5-oxopyrrolidin-2-yl)methyl)amino)methyl)-4H-pyrido[1,2-a]pyrimidin-4-one], 2.4 nM.
For `COc1nc(-c2cccc(-c3cccc(-c4ccn5c(=O)c(CNCC(C)(C)CO)cnc5c4)c3Cl)c2Cl)ccc1CNC[C@@H]1CCC(=O)N1` [Example 273, (S)-8-(2,2′-dichloro-3′-(6-methoxy-5-((((5-oxopyrrolidin-2-yl)methyl)amino)methyl)pyridin-2-yl)-[1,1′-biphenyl]-3-yl)-3-(((3-hydroxy-2,2-dimethylpropyl)amino)methyl)-4H-pyrido[1,2-a]pyrimidin-4-one] the value was 4.2 nM.
The compound `O=C1CC[C@@H](CNCc2cnc3cc(-c4cccc(-c5cccc(-c6ccc7c(n6)OCCN(CCO)C7)c5Cl)c4Cl)ccn3c2=O)N1` [Example 268, (S)-8-(2,2′-Dichloro-3′-(4-(2-hydroxyethyl)-2,3,4,5-tetrahydropyrido[3,2-f][1,4]oxazepin-8-yl)-[1,1′-biphenyl]-3-yl)-3-((((5-oxopyrrolidin-2-yl)methyl)amino)methyl)-4H-pyrido[1,2-a]pyrimidin-4-one] showed an IC50 of 710 nM. This IC50 lies about 170-fold higher than the previous one.
For `COC(=O)CNCc1cnc2cc(-c3cccc(-c4cccc(-c5ccc(CNC[C@@H]6CCC(=O)N6)c(OC)n5)c4Cl)c3Cl)cc(C)n2c1=O` [Example 294, (S)-Methyl 2-(((8-(2,2′-dichloro-3′-(6-methoxy-5-((((5-oxopyrrolidin-2-yl)methyl)amino)methyl)pyridin-2-yl)-[1,1′-biphenyl]-3-yl)-6-methyl-4-oxo-4H-pyrido[1,2-a]pyrimidin-3-yl)methyl)amino)acetate] the value was 0.4 nM; for `COc1nc(-c2cccc(-c3cccc(-c4ccn5c(=O)cc(CN[C@H]6C[C@](C)(O)C6)nc5c4)c3Cl)c2Cl)ccc1CNC[C@@H]1CCC(=O)N1` [Example 376, 8-(2,2′-Dichloro-3′-(6-methoxy-5-(((((S)-5-oxopyrrolidin-2-yl)methyl)amino)methyl)pyridin-2-yl)-[1,1′-biphenyl]-3-yl)-2-((((1r,3r)-3-hydroxy-3-methylcyclobutyl)amino)methyl)-4H-pyrido[1,2-a]pyrimidin-4-one], 0.7 nM.
For the compound `Cc1c(-c2ccn3c(=O)c(CNC[C@@H]4CCC(=O)N4)cnc3c2)cccc1-c1cccc(-c2ccc3c(c2)CC(NC(=O)[C@@H](N)CO)C3)c1Cl` (mixture of isomers) [Example 45, (2S)-2-Amino-N-(5-(2-chloro-2′-methyl-3′-(4-oxo-3-(((((S)-5-oxopyrrolidin-2-yl)methyl)amino)methyl)-4H-pyrido[1,2-a]pyrimidin-8-yl)-[1,1′-biphenyl]-3-yl)-2,3-dihydro-1H-inden-2-yl)-3-hydroxypropanamide], the IC50 was 680 nM.
In the case of `COc1nc(-c2cccc(-c3cccc(-c4ccn5c(=O)c(CNCC6(O)CCC6)cnc5c4)c3Cl)c2Cl)ccc1CNC[C@@H]1CCC(=O)N1` [Example 233, (S)-8-(2,2′-Dichloro-3′-(6-methoxy-5-((((5-oxopyrrolidin-2-yl)methyl)amino)methyl)pyridin-2-yl)-[1,1′-biphenyl]-3-yl)-3-((((1-hydroxycyclobutyl)methyl)amino)methyl)-4H-pyrido[1,2-a]pyrimidin-4-one], the IC50 stood at 0.2 nM.
`Cc1c(-c2ccn3c(=O)c(CNC[C@@H]4CCC(=O)N4)cnc3c2)cccc1-c1cccc(-c2ccc(CNC[C@@H]3CCC(=O)N3)c(Cl)n2)c1Cl` [Example 50, 8-(2′-Chloro-3′-(6-chloro-5-(((((S)-5-oxopyrrolidin-2-yl)methyl)amino)methyl)pyridin-2-yl)-2-methyl-[1,1′-biphenyl]-3-yl)-3-(((((S)-5-oxopyrrolidin-2-yl)methyl)amino)methyl)-4H-pyrido[1,2-a]pyrimidin-4-one] returned an IC50 of 8.1 nM.
To `COc1cc(Cl)c(CNC[C@H]2CCC(=O)N2)c(-c2cccc(-c3cccc(-c4ccn5c(=O)c(CNC[C@@H]6CCC(=O)N6)cnc5c4)c3Cl)c2Cl)n1` [Example 337, 8-[2-chloro-3-[2-chloro-3-[4-chloro-6-methoxy-3-[[[(2R)-5-oxopyrrolidin-2-yl]methylamino]methyl]-2-pyridyl]phenyl]phenyl]-3-[[[(2S)-5-oxopyrrolidin-2-yl]methylamino]methyl]pyrido[1,2-a]pyrimidin-4-one] belongs 47 nM.
`COc1nc(-c2cccc(-c3cccc(-c4ccn5c(=O)c(CN6CC(CO)C6)cnc5c4)c3Cl)c2Cl)ccc1CN1CC[C@H](C(=O)O)C1` [Example 135, (S)-1-((6-(2,2′-Dichloro-3′-(3-((3-(hydroxymethyl)azetidin-1-yl)methyl)-4-oxo-4H-pyrido[1,2-a]pyrimidin-8-yl)-[1,1′-biphenyl]-3-yl)-2-methoxypyridin-3-yl)methyl)pyrrolidine-3-carboxylic acid] showed a concentration for half-maximal inhibition (IC50) of 0.2 nM.
To `COc1nc(-c2cccc(-c3cccc(-c4cnc(NCCNC(C)=O)c(OC)n4)c3Cl)c2Cl)cnc1NCCNC(C)=O` [Example 38, N,N′-((((2,2′-Dichloro-[1,1′-biphenyl]-3,3′-diyl)bis(3-methoxypyrazine-5,2-diyl))bis(azanediyl))bis(ethane-2,1-diyl))diacetamide] belongs 20 nM; to `COc1nc(-c2cccc(-c3cccc(-c4ccn5c(=O)c(CN6C[C@@H](O)C[C@H]6C(=O)O)cnc5c4)c3Cl)c2Cl)ccc1CNC[C@@H]1CCC(=O)N1` [Example 148, (2S,4S)-1-((8-(2,2′-Dichloro-3′-(6-methoxy-5-(((((S)-5-oxopyrrolidin-2-yl)methyl)amino)methyl)pyridin-2-yl)-[1,1′-biphenyl]-3-yl)-4-oxo-4H-pyrido[1,2-a]pyrimidin-3-yl)methyl)-4-hydroxypyrrolidine-2-carboxylic acid], 0.4 nM.
To `COc1nc(-c2cccc(-c3cccc(-c4ccn5c(=O)c(CNCCCO)cnc5c4)c3Cl)c2Cl)ccc1CNC[C@@H]1CCC(=O)N1` [Example 316, (S)-8-(2,2′-Dichloro-3′-(6-methoxy-5-((((5-oxopyrrolidin-2-yl)methyl)-amino)methyl)-pyridin-2-yl)-[1,1′-biphenyl]-3-yl)-3-(((3-hydroxypropyl)amino)methyl)-4H-pyrido[1,2-a]pyrimidin-4-one] belongs 0.3 nM; to `CNc1nc(-c2cccc(-c3cccc(-c4ccn5c(=O)c(CNC[C@@H]6CCC(=O)N6)cnc5c4)c3Cl)c2Cl)ccc1CNC[C@@H]1CCC(=O)N1` [Example 89, 8-(2,2′-Dichloro-3′-(6-(methylamino)-5-(((((S)-5-oxopyrrolidin-2-yl)methyl)amino)methyl)pyridin-2-yl)-[1,1′-biphenyl]-3-yl)-3-(((((S)-5-oxopyrrolidin-2-yl)methyl)amino)methyl)-4H-pyrido[1,2-a]pyrimidin-4-one], 3.5 nM.
To `COc1nc(-c2cccc(-c3cccc(-c4cc5c(=O)n(C)c(CNCCC6CCC(=O)N6)nn5c4)c3Cl)c2Cl)ccc1CNC[C@@H]1CCC(=O)N1` (stereo partly drawn) [Example 451, 6-[2-Chloro-3-[2-chloro-3-[6-methoxy-5-[[[(2S)-5-oxopyrrolidin-2-yl]methylamino]methyl]-2-pyridyl]phenyl]phenyl]-3-methyl-2-[[2-(5-oxopyrrolidin-2-yl)ethylamino]methyl]pyrrolo [2,1-f][1,2,4]triazin-4-one] belongs 200 nM.
